Columns and labels:
Control cells = test: % Survival (Colony Assay), control cells; assay type: cell-based
Procedure: (§1) Experiments were also performed to determine the anti-apoptotic effect conferred by overexpression of GRP78. This task was completed.
(§2) Clonogenic Survival Assays—Four thousand cells were seeded into 10-cm-diameter dishes. […] After drug treatment, the cells were grown in fresh medium for 10 to 14 days. The colonies were washed with ice-cold PBS, fixed with methanol, and stained with 10% Giemsa staining solution. The surviving fraction was determined by dividing the number of the surviving colonies in the drug-treated cells by the number of colonies in the non-treated control groups.

[1] = system: GRP78 Overexpression cells; test: % Survival (Colony Assay), GRP78 overexpression; assay type: cell-based; conditions: for % Survival (Colony Assay): GRP78 Overexpression
Procedure: as §1, §2

CHO cells [2] = test: Annexin V staining and FACS analysis, CHO cells; assay type: cell-based, Chinese hamster; conditions: 30 μM etoposide for 6 h
Excerpt: (§3) FIG. 3, Panel A depicts GRP78 overexpression protecting cells from etoposide-induced apoptosis. […] Viable cells are those with low annexin or no annexin and PI staining (lower left panel). Early stage apoptotic cells are represented by high annexin and low PI staining (lower right panel), later stage apoptotic cells represented by high annexin and high PI staining (upper right panel), and necrosis is represented by cells with high PI and low annexin staining (upper left panel).
(§4) Annexin V Staining and FACS Analysis—CHO, C.1, and T24/83 cells were trypsinized, washed twice with ice-cold PBS, pH 7.4, and resuspended in […] binding buffer (10 mM HEPES, pH 7.4, 140 mM NaCl, 2.5 mM CaCl2 at a concentration of 1×10^6 cells/ml. One hundred μl of cell suspension was transferred to 5-ml plastic tubes, and 5 μl of annexin V-fluorescein isothiocyanate (PharMingen) and 4 μl of 0.5 mg/ml PI were added. The cells were gently vortexed and incubated in the dark at room temperature for 20 min. Four hundred μl of binding buffer was added to each tube, and annexin V staining was analyzed by flow cytometry within 1 h. Cells negative for both PI and annexin V staining are live cells, annexin V positive staining cells are early apoptotic cells, and PI positive and annexin V positive staining cells are primarily cells in late stages of apoptosis.
(§5) The apoptotic cells were identified by annexin V labeling.

[3] = system: C.1 cells (CHO derivative overexpressing GRP78); test: Annexin V staining and FACS analysis, C.1 cells; assay type: cell-based, Chinese hamster; conditions: 30 μM etoposide for 6 h
Excerpt: as §3, §4, §5

T24/83-pcDNA cells = test: Annexin V staining and FACS analysis, T24/83-pcDNA cells; assay type: cell-based, human; conditions: versus non-treated
Procedure: as §4
(§6) A pair of stably transfected human transitional bladder carcinoma T24/83 cell lines selected and cultured under identical conditions, were used to determine the effect of GRP overexpression on neoplastic cells. The cell line, referred to as T24/83-GRP78, overexpressed human GRP78, and the other line, referred to as T24/83-pcDNA, was stably transfected with the empty expression vector pcDNA (28).

T24/83-GRP78 cells [4] = test: Annexin V staining and FACS analysis, T24/83-GRP78 cells; assay type: cell-based, human; conditions: versus non-treated
Procedure: as §4, §6

endogenous GRP78 = test: Immunoblot of endogenous GRP78 in MDA-MB-435 cells infected with 320 bp AS adenovirus, with or without etoposide; assay type: cell-based, human; conditions: mock-infected, etoposide treatment by itself
Procedure: The same cells were infected with the GFP negative control adenovirus. […] Thus, both the full length and the 320 bp version of the AS construct targeted against GRP78 blocked expression of GRP78 in a 293T test system.
Western Blotting—The cell lysate was prepared in radioimmune precipitation assay buffer and subjected to immunoblot with antibodies against GRP78, GRP94, topoisomerase II, caspase-7, and α-actin as described. Nitrocellulose membranes containing the transferred proteins were blocked in Tris-buffered saline containing 5% non-fat dry milk and 0.1% Tween 20 for 1 h at room temperature and were probed with the respective primary antibodies. For GRP78, an anti-KDEL mouse monoclonal antibody (SPA-827), an anti-GRP78 rabbit polyclonal antibody directed against the carboxyl ten amino acids of rat GRP78 (SPA-826) (StressGen, Victoria, Canada), or an anti-hamster GRP78 rabbit polyclonal antibody at 1:3000, 1:2000, and 1:5000 dilution, respectively, was used. […]

caspase-7 = test: Caspase-7 activation in etoposide-treated CHO cells (Western blot); assay type: cell-based, Chinese hamster; conditions: 100 μM etoposide for 6 h, harvested after 24 h
Procedure: FIG. 5, Panel A depicts the effect of GRP78 overexpression on topoisomerase II expression and caspase-7 activation. Total protein lysates were prepared from non-treated (Ctrl) or etoposide-treated (Etop) CHO and C.1 cells.
Among the executor caspases, caspase-7 has been reported to be associated with the ER. Upon induction of apoptosis, procaspase-7 (35 kDa) is first converted into a 32-kDa intermediate, which is further processed into active 20- and 11-kDa subunits. […] Upon longer exposure of the autoradiogram, the active 20- and 11-kDa forms were evident in the etoposide-treated cells. When GRP78 was overexpressed, a low level of caspase-7 activation was detected in both the non-treated and etoposide-treated cells. […] In addition, upon addition of cytochrome c, caspase-7 activation was higher in CHO cells than C.1 cells, as evidenced by the increase in the active 20- and 11-kDa forms in the CHO samples compared with the C.1 samples.
The cells were suspended in 5 volumes of a hypotonic buffer (5 mM Tris-HCl, pH 7.4, 5 mM KCl, 1.5 mM MgCl2, 0.1 mM EGTA, pH 8.0, and 1 mM dithiothreitol) in the presence of 2 μg/ml leupeptin, pepstatin, and aprotinin protease inhibitors. After incubation on ice for 20 min, sucrose was added to a final concentration of 250 mM, and the cells were disrupted by douncing eight times in a 1-ml Wheaton Dounce homogenizer. […]

CHO cells [5] = test: DNA fragmentation assay, CHO cells; assay type: cell-based, Chinese hamster; conditions: etoposide-treated CHO cells, compared with C.1 cells; 100 μM for 12 h, harvested after 48 h
Procedure: The DNA fragmentation assays were performed using an apoptosis DNA ladder kit (Roche Molecular Biochemicals) according to manufacturer's instructions.
as §5

T24/83-GRP78 cells [6] = test: Clonogenic survival assays, T24/83 cells overexpressing GRP78; assay type: cell-based, human; conditions: versus T24/83-pcDNA cells
Procedure: as §2

SMILES: COc1cc([C@@H]2c3cc4c(cc3[C@@H](O[C@@H]3O[C@@H]5CO[C@@H](C)O[C@H]5[C@H](O)[C@H]3O)[C@H]3COC(=O)[C@H]23)OCO4)cc(OC)c1O [Etoposide]
- % Survival (Colony Assay) (Control cells; etoposide 0.2 μM): 71%
- % Survival (Colony Assay) (Control cells; etoposide 0.4 μM): 67%
- % Survival (Colony Assay) (Control cells; etoposide 0.8 μM): 26%
- % Survival (Colony Assay) (Control cells; etoposide 1.6 μM): 1.5%
- % Survival (Colony Assay) ([1]; etoposide 0.2 μM): 93%
- % Survival (Colony Assay) ([1]; etoposide 0.4 μM): 93%
- % Survival (Colony Assay) ([1]; etoposide 0.8 μM): 77%
- % Survival (Colony Assay) ([1]; etoposide 1.6 μM): 63%
- effect of GRP78 overexpression on sensitivity to the drug ([1]; GRP78 overexpression versus control): confers resistance
- percentage of apoptotic cells (annexin V labeling) upon etoposide treatment (CHO cells [2]; non-treated 9%): 90%
- increase of the percentage of apoptotic cells upon etoposide treatment (CHO cells [2]; versus non-treated): 10 fold
- percentage of apoptotic cells (annexin V labeling) upon etoposide treatment ([3]; non-treated 15%): 70%
- increase of the percentage of apoptotic cells upon etoposide treatment ([3]; versus non-treated): 4.7 fold
- increase of the percentage of annexin V-labeled cells by etoposide treatment (T24/83-pcDNA cells): 2.7 fold
- increase of the percentage of annexin V-labeled cells by etoposide treatment (T24/83-GRP78 cells [4]): 1.4 fold
- reduction of the amount of endogenous GRP78 (endogenous GRP78): about 40%
- caspase-7 activation (caspase-7): activation of caspase-7
- DNA fragmentation (CHO cells [5]): More extensive DNA fragmentation
- resistance of T24/83 cells overexpressing GRP78 (clonogenic survival) (T24/83-GRP78 cells [6]): more resistance

Reference: US20050143291A1, “Methods and compositions for modulating apoptosis” (priority 2003, published 2005)
